# According to patent US20100298141A1, “SUBSTITUTED PYRIDINE N-OXIDE HERBICIDES” (E. I. DU PONT DE NEMOURS AND COMPANY, priority 2007, published 2010):
# Tested on: Russian thistle
# Experiment: Test C pre-/postemergence test
# Assay type: in vivo, Salsola kali
# Details: for Plant response rating, Russian Thistle: 31 g ai/ha, scale 0 to 100 (0 no effect, 100 complete control)
# Source text: Seeds of plant species selected from blackgrass (Alopecurus myosuroides), downy brome (Bromus tectorum), green foxtail (Setaria viridis), Italian ryegrass (Lolium multiflorum), wheat (Triticum aestivum), wild oat (Avena fatua), catchweed bedstraw (Galium aparine), Russian thistle (Salsola kali), […] (Cynodon dactylon), Surinam grass (Brachiaria decumbens), cocklebur (Xanthium strumarium), corn (Zea mays), crabgrass (Digitaria sanguinalis), woolly cupgrass (Eriochloa villosa), giant foxtail (Setaria faberii), Goosegrass (Eleusin indica), johnsongrass (Sorghum halepense), kochia (Kochia scoparia), lambsquarters (Chenopodium album), morningglory (Ipomoea coccinea), eastern black nightshade (Solanum ptycanthum), yellow nutsedge (Cyperus esculentus), pigweed (Amaranthus retroflexus), common ragweed (Ambrosia elation), soybean (Glycine max), common (oilseed) sunflower (Helianthus annuus), and velvetleaf (Abutilon theophrasti) were planted and treated preemergence with test chemicals formulated in a non-phytotoxic solvent mixture which included a surfactant. At the same time, plants selected from these crop and weed species and also winter barley (Hordeum vulgare), canarygrass (Phalaris minor), and chickweed (Stellaria media) were treated with postemergence applications of some of the test chemicals formulated in the same manner. Plants ranged in height from 2 to 18 cm (1- to 4-leaf stage) for postemergence treatments. […] At time of treatment, test pots were flooded to 3 cm above the soil surface, treated by application of test compounds directly to the paddy water, and then maintained at that water depth for the duration of the test. […] A dash (-) response means no test result.
# [1] = 62 g ai/ha, Preemergence, scale 0 to 100
# [2] = 125 g ai/ha, preemergence, scale 0 (no effect) to 100 (complete control)
# [3] = preemergence, 250 g ai/ha, scale 0 (no effect) to 100 (complete control)
Structure (SMILES),Russian Thistle plant response rating [1],"Plant response rating, Russian Thistle (Preemergence)",Russian Thistle plant response rating [2],Russian Thistle plant response rating [3]
Cn1nc(C(F)(F)F)c(C[S+]([O-])c2cc(C(F)(F)F)cc[n+]2[O-])c1Cl (racemic) [Compound 34],100,70,–,–
C#CCOc1c(CS(=O)(=O)c2cccc[n+]2[O-])c(C(F)(F)F)nn1C [Compound 103],100,100,100,100
Cn1nc(C(F)(F)F)c(CS(=O)(=O)c2ccc(Cl)c[n+]2[O-])c1Cl [Compound 18],30,0,–,–
CCc1cc[n+]([O-])c([S+]([O-])Cc2c(C(F)(F)F)nn(C)c2OC(F)F)c1 (stereo not shown) [Compound 101],100,100,100,100
Cn1nc(C(F)(F)F)c(C[S+]([O-])c2cc(C(C)(C)C)cc[n+]2[O-])c1OC(F)F (racemic) [Compound 24],0,–,–,–
